Measurements as given in patent publication US6503936B1 (priority 1998, dated 2003).
Like-named read-outs stand apart in the source and are kept apart here.

Legend:
[1] = tested on: Phytophthora infestans; assay type: in vivo; conditions: tomato leaves, 6 days after infection
[2] = tested on: Phytophthora infestans; assay type: in vivo; conditions: tomato leaves, 6 days after infection; remark: listed apart in the source

## O=S(=O)([O-])[O-].[Cu+2].[Cu+2].[Cu+2].[Cu+2].[OH-].[OH-].[OH-].[OH-].[OH-].[OH-] [II.1, tribasic copper sulfate 3Cu(OH)2xCuSO4]
[1]; Conc. 12.5 ppm
  Efficiency in % of the untreated control: 0%
[1]; Conc. 25 ppm
  Efficiency in % of the untreated control: 8%
[1]; Conc. 50 ppm
  Efficiency in % of the untreated control: 8%
[1]; Conc. 100 ppm
  Efficiency in % of the untreated control: 8%
[1]; Conc. 200 ppm
  Efficiency in % of the untreated control: 8%
[2]; 12.5 ppm active compound in the spray liquor
  Efficiency in % of the untreated control: 0%
[2]; 25 ppm active compound in the spray liquor
  Efficiency in % of the untreated control: 0%
[2]; 50 ppm active compound in the spray liquor
  Efficiency in % of the untreated control: 0%
[2]; 100 ppm active compound in the spray liquor
  Efficiency in % of the untreated control: 10%
